Reference: the supplement of paper PMC11208160

experiment: recombinant UMI read abundance after kanamycin selection (control-corrected) (log10(CPM+1)); higher = more efficient recombination; extreme values may be limits of the assay; sequences stand for … in AGTGCAGAGAAAATCGGCCAGTTTTCTCTGCCTGCAGTCCGCATGCCGTGGGACCCCTTGGGTTCTAACCTGTTGCCTAGATTTATGCAGCGGACTGCCTTTCTCCCAAAGTGATAAACCGG…AGGTTGGTTTCACT; site = the 11-nt donor
Summary of the method: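 Sequenced counts of recombinant UMIs were turned into CPM, averaged across replicates and scaled with control-derived factors. The reported figure is log10(CPM+1). Those UMIs, each 12 nt long, tagged donor and donor-binding-loop pairs on a plasmid with a promoterless kanamycin gene, screened as a pool in Escherichia coli with IPTG (0.07 mM) plus kanamycin or without selection.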
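Note: IS621 bridge recombinase in Escherichia coli cells against a fixed T5 target plasmid.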

Sequence | recombinant UMI read abundance (log10)
CCCTTTACATGGACCGGTTTTCCCGGTAATCCGTATTTGCT (site CCGTTTACTAG) | 0
CCCTTTACATGGACCGGTTTTCCCGGTAATCCGTATTTGCT (site CCTTTTACTAG) | 0
CCGAAACCATGGACCGGTTTTCCCGGTAATCCGTATTTGTT (site CCGAAACCTAA) | 0
CCGAAACCATGGACCGGTTTTCCCGGTAATCCGTATTTGTT (site CGGAATCCTAA) | 0.00312
CCGAAGGCATGGACCGGTTTTCCCGGTAATCCGTATTTGTG (site CCGAAGGCTCA) | 0.495
CCGAATACATGGACCGGTTTTCCCGGTAATCCGTATTTGGC (site CCAAATACTGC) | 0
CCGAATACATGGACCGGTTTTCCCGGTAATCCGTATTTGGC (site CCCAATACTGC) | 0
CCGAATACATGGACCGGTTTTCCCGGTAATCCGTATTTGGC (site CCGAATACTGC) | 0
CCGAATACATGGACCGGTTTTCCCGGTAATCCGTATTTGGC (site CCTAATACTGC) | 0
CCGACATCATGGACCGGTTTTCCCGGTAATCCGTATTTGCT (site CAGACATCTAG) | 0
CCGACATCATGGACCGGTTTTCCCGGTAATCCGTATTTGCT (site CCGACATCTAG) | 0.421
CCGACATCATGGACCGGTTTTCCCGGTAATCCGTATTTGCT (site CGGACATCTAG) | 0
CCGACATCATGGACCGGTTTTCCCGGTAATCCGTATTTGCT (site CTGACATCTAG) | 0
CCGACCTCATGGACCGGTTTTCCCGGTAATCCGTATTTGGT (site CCGACCTCTAC) | 0.121
CCGATATCATGGACCGGTTTTCCCGGTAATCCGTATTTGTC (site CCAATATCTGA) | 0
CCGATATCATGGACCGGTTTTCCCGGTAATCCGTATTTGTC (site CCCATATCTGA) | 0
CCGATATCATGGACCGGTTTTCCCGGTAATCCGTATTTGTC (site CCGATATCTGA) | 1.21
CCGATATCATGGACCGGTTTTCCCGGTAATCCGTATTTGTC (site CCTATATCTGA) | 0
CCGATGCCATGGACCGGTTTTCCCGGTAATCCGTATTTGGA (site CCGATGCCTTC) | 0.0103
CCGATTCCATGGACCGGTTTTCCCGGTAATCCGTATTTGTT (site CCGATTCCTAA) | 0
CCGATTCCATGGACCGGTTTTCCCGGTAATCCGTATTTGTT (site CGGAATCCTAA) | 0.00507
CCGCAGTCATGGACCGGTTTTCCCGGTAATCCGTATTTGGC (site CCGCAGTCTGC) | 0
CCGCATACATGGACCGGTTTTCCCGGTAATCCGTATTTGTT (site CCGCATACTAA) | 0.39

Sequence | recombinant UMI read abundance (log10)
CCGGAAGCATGGACCGGTTTTCCCGGTAATCCGTATTTGAC (site CCGGAAGCTGT) | 0.161
CCGGTAGCATGGACCGGTTTTCCCGGTAATCCGTATTTGAC (site CCGGTAGCTGT) | 2.38
CCGGTATCATGGACCGGTTTTCCCGGTAATCCGTATTTGAC (site CCGGTATCTGT) | 1.45
CCGGTATCATGGACCGGTTTTCCCGGTAATCCGTATTTGAC (site CTAGTATCTGT) | 0
CCGGTGGCATGGACCGGTTTTCCCGGTAATCCGTATTTGAC (site CCGGTGGCTGT) | 1.58
CCGTCAGCATGGACCGGTTTTCCCGGTAATCCGTATTTGTG (site CCGTAAGCTCA) | 0
CCGTCAGCATGGACCGGTTTTCCCGGTAATCCGTATTTGTG (site CCGTCAGCTCA) | 0.00531
CCGTCAGCATGGACCGGTTTTCCCGGTAATCCGTATTTGTG (site CCGTGAGCTCA) | 0.00599
CCGTCAGCATGGACCGGTTTTCCCGGTAATCCGTATTTGTG (site CCGTTAGCTCA) | 0.00541
CCGTCATCATGGACCGGTTTTCCCGGTAATCCGTATTTGCT (site CCGTCATCTAG) | 0
CCGTCATCATGGACCGGTTTTCCCGGTAATCCGTATTTGCT (site CGATCATCTAG) | 0.00968
CCGTCGCCATGGACCGGTTTTCCCGGTAATCCGTATTTGAT (site CCGTCGCCTAT) | 0.00407
CCGTCGGCATGGACCGGTTTTCCCGGTAATCCGTATTTGTG (site CCGTCGGCTCA) | 0.0197
CCGTGAGCATGGACCGGTTTTCCCGGTAATCCGTATTTGTG (site CCGTAAGCTCA) | 0.0763
CCGTGAGCATGGACCGGTTTTCCCGGTAATCCGTATTTGTG (site CCGTCAGCTCA) | 0
CCGTGAGCATGGACCGGTTTTCCCGGTAATCCGTATTTGTG (site CCGTGAGCTCA) | 0.568
CCGTGAGCATGGACCGGTTTTCCCGGTAATCCGTATTTGTG (site CCGTTAGCTCA) | 0.00536
CCGTTAGCATGGACCGGTTTTCCCGGTAATCCGTATTTGTG (site ACGTTAGCTCA) | 0.0114
CCGTTAGCATGGACCGGTTTTCCCGGTAATCCGTATTTGTG (site CAGTTAGCTCA) | 0.00951
CCGTTAGCATGGACCGGTTTTCCCGGTAATCCGTATTTGTG (site CCATTAGCTCA) | 0.434
CCGTTAGCATGGACCGGTTTTCCCGGTAATCCGTATTTGTG (site CCCTTAGCTCA) | 0.0161
CCGTTAGCATGGACCGGTTTTCCCGGTAATCCGTATTTGTG (site CCGATAGCTCA) | 0.0175
CCGTTAGCATGGACCGGTTTTCCCGGTAATCCGTATTTGTG (site CCGCTAGCTCA) | 0.00432

Sequence | recombinant UMI read abundance (log10)
CCGTTAGCATGGACCGGTTTTCCCGGTAATCCGTATTTGTG (site CCGGTAGCTCA) | 0.014
CCGTTAGCATGGACCGGTTTTCCCGGTAATCCGTATTTGTG (site CCGTAAGCTCA) | 0.00568
CCGTTAGCATGGACCGGTTTTCCCGGTAATCCGTATTTGTG (site CCGTCAGCTCA) | 0.0147
CCGTTAGCATGGACCGGTTTTCCCGGTAATCCGTATTTGTG (site CCGTGAGCTCA) | 0.0389
CCGTTAGCATGGACCGGTTTTCCCGGTAATCCGTATTTGTG (site CCGTTAACTCA) | 0.0199
CCGTTAGCATGGACCGGTTTTCCCGGTAATCCGTATTTGTG (site CCGTTACCTCA) | 0
CCGTTAGCATGGACCGGTTTTCCCGGTAATCCGTATTTGTG (site CCGTTAGCTAA) | 0.0124
CCGTTAGCATGGACCGGTTTTCCCGGTAATCCGTATTTGTG (site CCGTTAGCTCA) | 0.386
CCGTTAGCATGGACCGGTTTTCCCGGTAATCCGTATTTGTG (site CCGTTAGCTCC) | 0.0262
CCGTTAGCATGGACCGGTTTTCCCGGTAATCCGTATTTGTG (site CCGTTAGCTCG) | 0
CCGTTAGCATGGACCGGTTTTCCCGGTAATCCGTATTTGTG (site CCGTTAGCTCT) | 0
CCGTTAGCATGGACCGGTTTTCCCGGTAATCCGTATTTGTG (site CCGTTAGCTGA) | 0
CCGTTAGCATGGACCGGTTTTCCCGGTAATCCGTATTTGTG (site CCGTTAGCTTA) | 0
CCGTTAGCATGGACCGGTTTTCCCGGTAATCCGTATTTGTG (site CCGTTATCTCA) | 0
CCGTTAGCATGGACCGGTTTTCCCGGTAATCCGTATTTGTG (site CCGTTCGCTCA) | 0
CCGTTAGCATGGACCGGTTTTCCCGGTAATCCGTATTTGTG (site CCGTTGGCTCA) | 0.0165
CCGTTAGCATGGACCGGTTTTCCCGGTAATCCGTATTTGTG (site CCGTTTGCTCA) | 0.00521
CCGTTAGCATGGACCGGTTTTCCCGGTAATCCGTATTTGTG (site CCTTTAGCTCA) | 0.015
CCGTTAGCATGGACCGGTTTTCCCGGTAATCCGTATTTGTG (site CGGTTAGCTCA) | 0.00954
CCGTTAGCATGGACCGGTTTTCCCGGTAATCCGTATTTGTG (site CTGTTAGCTCA) | 0.164
CCGTTAGCATGGACCGGTTTTCCCGGTAATCCGTATTTGTG (site GCGTTAGCTCA) | 0
CCGTTAGCATGGACCGGTTTTCCCGGTAATCCGTATTTGTG (site TCGTTAGCTCA) | 0.00762
